Results reported in US8541588B2, “Sulfonamide derivatives” (Pfizer Limited, priority 2009, dated 2013).

The molecules below were run against T1, Nav1.7 (or SCN9A) channel; HEK cells stably transfected with hSCN9A (Homo sapiens, UniProt Q15858) (assay: Nav1.7 block, PatchXpress 7000 automated whole-cell voltage clamp, estimated IC50 (EIC50)). Conditions: PatchXpress platform; hSCN9A HEK cells held at V1/2 of inactivation; estimated IC50.
T1 construct: expressed in transfected cells
T1 sequence (Q15858 whole entry): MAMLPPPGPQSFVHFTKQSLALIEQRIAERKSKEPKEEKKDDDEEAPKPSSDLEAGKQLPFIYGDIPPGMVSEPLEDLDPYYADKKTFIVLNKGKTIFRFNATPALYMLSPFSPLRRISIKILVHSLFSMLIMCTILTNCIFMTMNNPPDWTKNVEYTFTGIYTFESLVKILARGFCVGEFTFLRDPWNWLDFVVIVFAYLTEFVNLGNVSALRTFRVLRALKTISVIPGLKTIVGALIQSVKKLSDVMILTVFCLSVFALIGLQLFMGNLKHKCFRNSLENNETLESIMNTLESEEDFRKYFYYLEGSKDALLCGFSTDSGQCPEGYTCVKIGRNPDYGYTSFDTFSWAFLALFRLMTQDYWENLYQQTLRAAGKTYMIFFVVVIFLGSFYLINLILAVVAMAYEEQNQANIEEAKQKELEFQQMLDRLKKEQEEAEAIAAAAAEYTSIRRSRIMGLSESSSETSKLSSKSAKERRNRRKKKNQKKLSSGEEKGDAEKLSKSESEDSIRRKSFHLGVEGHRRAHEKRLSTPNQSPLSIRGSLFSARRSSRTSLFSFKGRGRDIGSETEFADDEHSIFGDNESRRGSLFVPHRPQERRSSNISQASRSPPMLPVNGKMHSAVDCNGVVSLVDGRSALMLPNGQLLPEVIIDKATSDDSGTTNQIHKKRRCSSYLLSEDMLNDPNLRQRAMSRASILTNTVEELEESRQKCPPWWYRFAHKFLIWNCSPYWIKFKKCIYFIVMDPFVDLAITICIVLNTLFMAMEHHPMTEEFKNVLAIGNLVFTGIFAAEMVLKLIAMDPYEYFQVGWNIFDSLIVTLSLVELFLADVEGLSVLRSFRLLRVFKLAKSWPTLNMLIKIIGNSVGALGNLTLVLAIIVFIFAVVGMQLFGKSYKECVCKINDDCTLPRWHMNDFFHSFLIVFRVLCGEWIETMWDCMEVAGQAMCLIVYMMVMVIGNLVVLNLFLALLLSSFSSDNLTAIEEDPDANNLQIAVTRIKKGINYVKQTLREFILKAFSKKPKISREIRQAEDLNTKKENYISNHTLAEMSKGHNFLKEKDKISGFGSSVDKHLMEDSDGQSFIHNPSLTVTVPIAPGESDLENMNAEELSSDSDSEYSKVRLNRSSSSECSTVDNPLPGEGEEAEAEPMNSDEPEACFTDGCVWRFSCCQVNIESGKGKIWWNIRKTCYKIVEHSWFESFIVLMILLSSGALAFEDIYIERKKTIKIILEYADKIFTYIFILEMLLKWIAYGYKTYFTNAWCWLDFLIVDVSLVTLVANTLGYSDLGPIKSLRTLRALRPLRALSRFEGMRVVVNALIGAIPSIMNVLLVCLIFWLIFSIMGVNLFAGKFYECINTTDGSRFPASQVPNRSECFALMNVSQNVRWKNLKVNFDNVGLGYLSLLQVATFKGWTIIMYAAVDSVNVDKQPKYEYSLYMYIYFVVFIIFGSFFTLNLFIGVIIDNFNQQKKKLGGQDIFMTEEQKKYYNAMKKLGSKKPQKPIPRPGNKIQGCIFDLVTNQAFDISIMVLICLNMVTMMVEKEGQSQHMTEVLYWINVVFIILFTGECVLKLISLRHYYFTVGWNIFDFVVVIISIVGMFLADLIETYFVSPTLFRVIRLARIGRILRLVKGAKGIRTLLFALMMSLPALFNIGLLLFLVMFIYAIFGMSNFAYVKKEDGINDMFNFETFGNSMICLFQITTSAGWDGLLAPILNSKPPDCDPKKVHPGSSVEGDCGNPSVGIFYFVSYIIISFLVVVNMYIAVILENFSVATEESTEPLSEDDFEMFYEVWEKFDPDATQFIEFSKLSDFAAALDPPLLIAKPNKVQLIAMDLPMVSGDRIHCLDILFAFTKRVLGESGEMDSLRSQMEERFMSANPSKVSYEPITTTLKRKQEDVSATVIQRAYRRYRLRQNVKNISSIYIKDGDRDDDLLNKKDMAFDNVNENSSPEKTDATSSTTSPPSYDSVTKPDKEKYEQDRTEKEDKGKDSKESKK
Assay type: cell-based
`CCOC(=O)Cn1nccc1-c1cc(Cl)ccc1Oc1ccc(S(=O)(=O)Nc2ncns2)cc1C#N` [Example 29, ethyl 2-(5-(2-(4-(N-1,2,4-thiadiazol-5-ylsulfamoyl)-2-cyanophenoxy)-5-chlorophenyl)-1H-pyrazol-1-yl)acetate] gave an IC50 of 230 nM. `COC(=O)c1ccc(Oc2ccc(S(=O)(=O)Nc3ncns3)cc2C#N)c(-c2ccnn2C)c1` [Example 30, methyl 4-(4-(N-1,2,4-thiadiazol-5-ylsulfamoyl)-2-cyanophenoxy)-3-(1-methyl-1H-pyrazol-5-yl)benzoate] showed an IC50 of 300 nM. `Cc1cccc(-c2cc(F)ccc2F)c1Oc1ccc(S(=O)(=O)Nc2ncns2)cc1C#N` [Example 31, 3-cyano-4-[(2′,5′-difluoro-3-methylbiphenyl-2-yl)oxy]-N-1,2,4-thiadiazol-5-ylbenzenesulfonamide] was tested, and the IC50 was 16200 nM. Molecule `Cc1cccc(-c2cccc(OC(C)C)c2)c1Oc1ccc(S(=O)(=O)Nc2ncns2)cc1C#N` [Example 32, 3-cyano-4-[(3′-isopropoxy-3-methylbiphenyl-2-yl)oxy]-N-1,2,4-thiadiazol-5-ylbenzenesulfonamide] has an IC50 of 3380 nM. `N#Cc1cc(S(=O)(=O)Nc2ncns2)ccc1Oc1ccc(F)cc1-c1cc(F)ccc1F` [Example 33, 3-cyano-N-1,2,4-thiadiazol-5-yl-4-[(2′,5,5′-trifluorobiphenyl-2-yl)oxy]benzenesulfonamide] gave an IC50 of 380 nM. Molecule `CC(C)Oc1cccc(-c2ccccc2Oc2ccc(S(=O)(=O)Nc3ncns3)cc2C#N)c1` [Example 34, 3-cyano-4-[(3′-isopropoxybiphenyl-2-yl)oxy]-N-1,2,4-thiadiazol-5-ylbenzenesulfonamide] has an IC50 of 90 nM. In the case of `Cc1cccc(-c2ccc(F)cc2F)c1Oc1ccc(S(=O)(=O)Nc2ncns2)cc1C#N` [Example 35, 3-cyano-4-[(2′,4′-difluoro-3-methylbiphenyl-2-yl)oxy]-N-1,2,4-thiadiazol-5-ylbenzenesulfonamide], the IC50 is reported as 12700 nM. For `N#Cc1cc(S(=O)(=O)Nc2ncns2)ccc1Oc1ccccc1-c1cc(F)ccc1F` [Example 36, 3-cyano-4-[(2′,5′-difluorobiphenyl-2-yl)oxy]-N-1,2,4-thiadiazol-5-ylbenzenesulfonamide], the IC50 was 1290 nM. `Cc1cccc(-c2cccc(OC(F)(F)F)c2)c1Oc1ccc(S(=O)(=O)Nc2ncns2)cc1C#N` [Example 37, 3-cyano-4-{[3-methyl-3′-(trifluoromethoxy)biphenyl-2-yl]oxy}-N-1,2,4-thiadiazol-5-ylbenzenesulfonamide] showed an IC50 of 30900 nM. With `Cc1cccc(-c2cccc(F)c2)c1Oc1ccc(S(=O)(=O)Nc2ncns2)cc1C#N` [Example 38, 3-cyano-4-[(3′-fluoro-3-methylbiphenyl-2-yl)oxy]-N-1,2,4-thiadiazol-5-ylbenzenesulfonamide] the IC50 was 15500 nM. With `Cc1cccc(-c2ccc(F)cc2)c1Oc1ccc(S(=O)(=O)Nc2ncns2)cc1C#N` [Example 39, 3-cyano-4-[(4′-fluoro-3-methylbiphenyl-2-yl)oxy]-N-1,2,4-thiadiazol-5-ylbenzenesulfonamide] the IC50 was 2030 nM. For `Cc1cccc(-c2ccc(OC(F)(F)F)cc2)c1Oc1ccc(S(=O)(=O)Nc2ncns2)cc1C#N` [Example 40, 3-cyano-4-{[3-methyl-4′-(trifluoromethoxy)biphenyl-2-yl]oxy}-N-1,2,4-thiadiazol-5-ylbenzenesulfonamide], the IC50 was 5740 nM. In the case of `COc1ccc(-c2cccc(C)c2Oc2ccc(S(=O)(=O)Nc3ncns3)cc2C#N)cc1F` [Example 41, 3-cyano-4-[(3′-fluoro-4′-methoxy-3-methylbiphenyl-2-yl)oxy]-N-1,2,4-thiadiazol-5-ylbenzenesulfonamide], the IC50 is reported as 10900 nM. `COc1ccc(-c2cccc(C)c2Oc2ccc(S(=O)(=O)Nc3ncns3)cc2C#N)cc1` [Example 42, 3-cyano-4-[(4′-methoxy-3-methylbiphenyl-2-yl)oxy]-N-1,2,4-thiadiazol-5-ylbenzenesulfonamide] gave an IC50 of 1730 nM. For `Cc1cccc(-c2ccccc2F)c1Oc1ccc(S(=O)(=O)Nc2ncns2)cc1C#N` [Example 43, 3-cyano-4-[(2′-fluoro-3-methylbiphenyl-2-yl)oxy]-N-1,2,4-thiadiazol-5-ylbenzenesulfonamide], the IC50 was 21700 nM. For `Cc1cccc(-c2ccc(F)c(F)c2)c1Oc1ccc(S(=O)(=O)Nc2ncns2)cc1C#N` [Example 44, 3-cyano-4-[(3′,4′-difluoro-3-methylbiphenyl-2-yl)oxy]-N-1,2,4-thiadiazol-5-ylbenzenesulfonamide], the IC50 was 5930 nM. For `Cc1cccc(-c2cc(F)cc(F)c2)c1Oc1ccc(S(=O)(=O)Nc2ncns2)cc1C#N` [Example 45, 3-cyano-4-[(3′,5′-difluoro-3-methylbiphenyl-2-yl)oxy]-N-1,2,4-thiadiazol-5-ylbenzenesulfonamide], the IC50 was 30440 nM. In the case of `N#Cc1cc(S(=O)(=O)Nc2ncns2)ccc1Oc1ccc(F)cc1-c1ccc(F)cc1F` [Example 46, 3-cyano-N-1,2,4-thiadiazol-5-yl-4-[(2′,4′,5-trifluorobiphenyl-2-yl)oxy]benzenesulfonamide], the IC50 is reported as 210 nM. With `COc1ccc(-c2ccccc2Oc2ccc(S(=O)(=O)Nc3ncns3)cc2C#N)cc1F` [Example 48, 3-cyano-4-[(3′-fluoro-4′-methoxybiphenyl-2-yl)oxy]-N-1,2,4-thiadiazol-5-ylbenzenesulfonamide] the IC50 was 900 nM. `N#Cc1cc(S(=O)(=O)Nc2ncns2)ccc1Oc1ccccc1-c1ccc(F)cc1` [Example 49, 3-cyano-4-[(4′-fluorobiphenyl-2-yl)oxy]-N-1,2,4-thiadiazol-5-ylbenzenesulfonamide] was tested, and the IC50 was 160 nM. `N#Cc1cc(S(=O)(=O)Nc2ncns2)ccc1Oc1ccccc1-c1ccccc1F` [Example 50, 3-cyano-4-[(2′-fluorobiphenyl-2-yl)oxy]-N-1,2,4-thiadiazol-5-ylbenzenesulfonamide] showed an IC50 of 840 nM. In the case of `COc1ccc(-c2ccccc2Oc2ccc(S(=O)(=O)Nc3ncns3)cc2C#N)cc1` [Example 51, 3-cyano-4-[(4′-methoxybiphenyl-2-yl)oxy]-N-1,2,4-thiadiazol-5-ylbenzenesulfonamide], the IC50 is reported as 330 nM. Work on `N#Cc1cc(S(=O)(=O)Nc2ncns2)ccc1Oc1ccccc1-c1ccc(F)c(F)c1` [Example 52, 3-cyano-4-[(3′,4′-difluorobiphenyl-2-yl)oxy]-N-1,2,4-thiadiazol-5-ylbenzenesulfonamide] yielded an IC50 of 360 nM. For `N#Cc1cc(S(=O)(=O)Nc2ncns2)ccc1Oc1ccccc1-c1cc(F)cc(F)c1` [Example 53, 3-cyano-4-[(3′,5′-difluorobiphenyl-2-yl)oxy]-N-1,2,4-thiadiazol-5-ylbenzenesulfonamide], the IC50 was 3540 nM. Molecule `CC(C)Oc1ccc(-c2ccccc2Oc2ccc(S(=O)(=O)Nc3ncns3)cc2C#N)cc1` [Example 54, 3-cyano-4-[(4′-isopropoxybiphenyl-2-yl)oxy]-N-1,2,4-thiadiazol-5-ylbenzenesulfonamide] has an IC50 of 260 nM. Molecule `N#Cc1cc(S(=O)(=O)Nc2ncns2)ccc1Oc1ccccc1-c1cccc(OC(F)(F)F)c1` [Example 55, 3-cyano-N-1,2,4-thiadiazol-5-yl-4-{[3′-(trifluoromethoxy)biphenyl-2-yl]oxy}benzenesulfonamide] has an IC50 of 920 nM. `N#Cc1cc(S(=O)(=O)Nc2ncns2)ccc1Oc1ccccc1-c1ccc(F)cc1F` [Example 56, 3-cyano-4-[(2′,4′-difluorobiphenyl-2-yl)oxy]-N-1,2,4-thiadiazol-5-ylbenzenesulfonamide] was tested, and the IC50 was 380 nM. For `N#Cc1cc(S(=O)(=O)Nc2ncns2)ccc1Oc1ccccc1-c1ccc(OC(F)(F)F)cc1` [Example 57, 3-cyano-N-1,2,4-thiadiazol-5-yl-4-{[4′-(trifluoromethoxy)biphenyl-2-yl]oxy}benzenesulfonamide], the IC50 was 660 nM. Work on `N#Cc1cc(S(=O)(=O)Nc2ncns2)ccc1Oc1cc(C(F)(F)F)nn1-c1ccc(F)cc1F` [Example 58, 3-cyano-4-{[1-(2,4-difluorophenyl)-3-(trifluoromethyl)-1H-pyrazol-5-yl]oxy}-N-1,2,4-thiadiazol-5-ylbenzenesulfonamide] yielded an IC50 of 340 nM. For `N#Cc1cc(S(=O)(=O)Nc2ncns2)ccc1Oc1cc(C(F)(F)F)nn1-c1ccc(F)c(F)c1` [Example 59, 3-cyano-4-{[1-(3,4-difluorophenyl)-3-(trifluoromethyl)-1H-pyrazol-5-yl]oxy}-N-1,2,4-thiadiazol-5-ylbenzenesulfonamide], the IC50 was 2280 nM. `N#Cc1cc(S(=O)(=O)Nc2ncns2)ccc1Oc1ccc(CC2CC2)cc1` [Example 60, 3-cyano-4-[4-(cyclopropylmethyl)phenoxy]-N-1,2,4-thiadiazol-5-ylbenzenesulfonamide] gave an IC50 of 2790 nM. With `N#Cc1cc(S(=O)(=O)Nc2ncns2)ccc1Oc1ccc(CN2CCC2)cc1F` [Example 61, 4-[4-(azetidin-1-ylmethyl)-2-fluorophenoxy]-3-cyano-N-1,2,4-thiadiazol-5-ylbenzenesulfonamide] the IC50 was 25700 nM. For `Cc1n[nH]c(C)c1-c1ccccc1Oc1ccc(S(=O)(=O)Nc2ncns2)cc1C#N` [Example 62, 3-cyano-4-[2-(3,5-dimethyl-1H-pyrazol-4-yl)phenoxy]-N-1,2,4-thiadiazol-5-ylbenzenesulfonamide], the IC50 was 3980 nM. `N#Cc1cc(S(=O)(=O)Nc2ncns2)ccc1Oc1ccccc1Oc1ccncc1` [Example 63, 3-cyano-4-[2-(pyridin-4-yloxy)phenoxy]-N-1,2,4-thiadiazol-5-ylbenzenesulfonamide] was tested, and the IC50 was 2350 nM. With `Cn1cc(-c2ccc(Cl)cc2)c(Oc2ccc(S(=O)(=O)Nc3ncns3)cc2C#N)n1` [Example 64, 4-{[4-(4-chlorophenyl)-1-methyl-1H-pyrazol-3-yl]oxy}-3-cyano-N-1,2,4-thiadiazol-5-ylbenzenesulfonamide] the IC50 was 780 nM. `COc1ccc(-n2cc(Oc3ccc(S(=O)(=O)Nc4ncns4)cc3C#N)c(C(C)C)n2)cc1` [Example 65, 3-cyano-4-{[3-isopropyl-1-(4-methoxyphenyl)-1H-pyrazol-4-yl]oxy}-N-1,2,4-thiadiazol-5-ylbenzenesulfonamide] gave an IC50 of 12200 nM. `Cc1cn(Cc2ccccc2)nc1Oc1ccc(S(=O)(=O)Nc2ncns2)cc1C#N` [Example 66, 4-[(1-benzyl-4-methyl-1H-pyrazol-3-yl)oxy]-3-cyano-N-1,2,4-thiadiazol-5-ylbenzenesulfonamide] was tested, and the IC50 was 2660 nM.
